Data taken from publication PMC11481871, “Discovery of GuaB inhibitors with efficacy against Acinetobacter baumannii infection” (mBio, 2024).
≈ marks a conversion by molar mass, not a printed value. Read-outs that look alike come from different tables or passages of the source.

What was measured:
[1] = biological target: E. coli GuaB (Escherichia coli, UniProt P0ADG7); assay: GuaB biochemical IC50
[2] = test system: Stenotrophomonas maltophilia; assay: MIC, CLSI microdilution; type: cell-based; details: 20 h; Stenotrophomonas maltophilia (ATCC700267); M9 + casamino acids + glucose
[3] = test system: Mycobacterium smegmatis; assay: MIC, CLSI microdilution; type: cell-based; details: Mycolicibacterium smegmatis; Mycobacterium smegmatis mc2-155; 7H9 + OADC, 48 h
[4] = test system: A. baumannii ΔadeJ (efflux-defective); assay: microbe, parasite or virus in culture; type: cell-based; details: Acinetobacter baumannii, read-out: Avg. MIC
[5] = test system: Acinetobacter baumannii ATCC19606 GuaB mutants; assay: MIC on GuaBi-resistant A. baumannii 19606 guaB mutants; type: cell-based; details: for MIC: Acinetobacter baumannii, M9 media
[6] = test system: Citrobacter werkmanii; assay: MIC, CLSI microdilution; type: cell-based; details: 20 h; Citrobacter werkmanii (ATCC51114); M9 + casamino acids + glucose
[7] = test system: Mycobacterium tuberculosis H37Rv; assay: MIC, resazurin redox assay; type: cell-based; details: ATCC 27294 / H37Rv, 192 h, Mycobacterium tuberculosis H37Rv (ATCC27294)
[8] = test system: Mycobacterium avium; assay: MIC, CLSI microdilution; type: cell-based; details: 336 h; Mycobacterium avium (ATCC25291); 7H9 + OADC, 14 days
[9] = test system: Mycobacterium marinum; assay: MIC, CLSI microdilution; type: cell-based; details: 7H9 + OADC, 48 h
[10] = biological target: S. aureus GuaB (Staphylococcus aureus, UniProt P99106); assay: GuaB biochemical IC50
[11] = test system: Staphylococcus aureus; assay: MIC, CLSI microdilution; type: cell-based; details: NRS 384 / USA300; Staphylococcus aureus USA300 NRS384; RPMI1640
[12] = test system: A. baumannii 19606 (wild-type); assay: microbe, parasite or virus in culture; type: cell-based, Acinetobacter baumannii; details: for MIC: Acinetobacter baumannii
[13] = test system: Klebsiella pneumoniae; assay: MIC, CLSI microdilution; type: cell-based; details: ATCC43816, 20 h; Klebsiella pneumoniae (ATCC 43816); M9 + casamino acids + glucose
[14] = test system: Pseudomonas aeruginosa; assay: MIC, CLSI microdilution; type: cell-based; details: 20 h; Pseudomonas aeruginosa PAO1; M9 + casamino acids + glucose
[15] = test system: Proteus mirabilis; assay: MIC, CLSI microdilution; type: cell-based; details: 20 h; Proteus mirabilis (ATCC29906); M9 + casamino acids + glucose
[16] = test system: Staphylococcus epidermidis; assay: MIC, CLSI microdilution; type: cell-based; details: Staphylococcus epidermidis RP62A (ATCC35984); RPMI1640
[17] = test system: Enterococcus faecalis; assay: MIC, CLSI microdilution; type: cell-based; details: Enterococcus faecalis (ATCC47077); RPMI1640
[18] = biological target: A. baumannii GuaB (Acinetobacter baumannii, UniProt D0CF46); assay: GuaB biochemical IC50
[19] = test system: Enterobacter aerogenes; assay: MIC, CLSI microdilution; type: cell-based; details: Klebsiella aerogenes, 20 h; Enterobacter aerogenes (ATCC13048); M9 + casamino acids + glucose
[20] = test system: 41 different cellular targets; assay: Secondary pharmacology panel (Cerep Eurofins); type: binding
[21] = biological target: H. sapiens IMPDH2 (Homo sapiens, UniProt P12268); assay: IMPDH2 biochemical IC50
[22] = test system: Serratia marcescens; assay: MIC, CLSI microdilution; type: cell-based; details: 20 h; Serratia marcescens (ATCC29021); M9 + casamino acids + glucose
[23] = test system: Escherichia coli; assay: MIC, CLSI microdilution; type: cell-based; details: 20 h; Escherichia coli UPEC CFT073; M9 + casamino acids + glucose
[24] = test system: Enterobacter cloacae; assay: MIC, CLSI microdilution; type: cell-based; details: 20 h; Enterobacter cloacae (ATCC222); M9 + casamino acids + glucose
[25] = test system: Acinetobacter baumannii; assay: MIC, CLSI microdilution; type: cell-based; details: 20 h, M9 + casamino acids + glucose
[26] = test system: A. baumannii ΔlpxA (LPS-null); assay: MIC on LPS-null A. baumannii; type: cell-based; details: Acinetobacter baumannii, read-out: Avg. MIC
[27] = test system: Enterococcus faecium; assay: MIC, CLSI microdilution; type: cell-based; details: Enterococcus faecium (ATCC700221); RPMI1640
[28] = in vitro; type: cell-based, human; details: human
Method: (§1) Primary human hepatocytes were plated on 384-well, collagen-coated plates in incubation media with no serum or with 10% fetal bovine serum (FBS). Eighteen hours later, cells were treated with the test article at seven concentrations starting at 100 µM in twofold dilutions, chlorpromazine (positive control) at seven concentrations starting at 100 µM in twofold dilutions or aflatoxin (positive control) at seven concentrations starting at 25 µM in twofold dilutions. Cell viability was then assayed using the Promega Cell TiterGlo ATP Assay.

[29] = test system: Primary human hepatocytes; assay: in vitro; type: cell-based
Method: as §1

[30] = test system: Bacillus subtilis; assay: MIC, CLSI microdilution; type: cell-based; details: RPMI1640

Sequence of S. aureus GuaB (P99106 whole entry): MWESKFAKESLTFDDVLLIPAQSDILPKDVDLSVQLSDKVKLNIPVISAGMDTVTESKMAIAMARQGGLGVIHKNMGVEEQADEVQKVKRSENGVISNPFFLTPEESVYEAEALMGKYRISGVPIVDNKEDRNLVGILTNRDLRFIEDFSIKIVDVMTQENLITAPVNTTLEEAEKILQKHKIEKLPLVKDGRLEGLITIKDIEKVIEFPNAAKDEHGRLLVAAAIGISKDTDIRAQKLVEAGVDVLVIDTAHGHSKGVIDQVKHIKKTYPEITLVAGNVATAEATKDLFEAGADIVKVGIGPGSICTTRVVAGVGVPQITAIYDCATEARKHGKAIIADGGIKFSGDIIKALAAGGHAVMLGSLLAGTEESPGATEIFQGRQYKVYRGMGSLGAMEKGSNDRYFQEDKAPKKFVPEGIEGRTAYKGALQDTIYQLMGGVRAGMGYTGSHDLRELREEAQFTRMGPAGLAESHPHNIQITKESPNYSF
Sequence of E. coli GuaB (P0ADG7 whole entry): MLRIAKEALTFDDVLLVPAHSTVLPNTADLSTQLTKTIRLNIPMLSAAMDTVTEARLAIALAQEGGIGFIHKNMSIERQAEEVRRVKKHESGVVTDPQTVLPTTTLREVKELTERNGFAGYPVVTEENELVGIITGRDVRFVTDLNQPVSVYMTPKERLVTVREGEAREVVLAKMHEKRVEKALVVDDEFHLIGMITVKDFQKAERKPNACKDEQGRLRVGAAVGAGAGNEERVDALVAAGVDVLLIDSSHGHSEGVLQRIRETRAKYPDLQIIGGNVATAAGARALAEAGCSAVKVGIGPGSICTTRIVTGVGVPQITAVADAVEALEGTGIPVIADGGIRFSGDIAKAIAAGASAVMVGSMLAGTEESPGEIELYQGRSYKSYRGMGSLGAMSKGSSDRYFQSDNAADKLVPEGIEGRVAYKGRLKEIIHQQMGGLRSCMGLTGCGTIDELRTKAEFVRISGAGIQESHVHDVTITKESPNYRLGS
Sequence of A. baumannii GuaB (D0CF46 entry or part of it): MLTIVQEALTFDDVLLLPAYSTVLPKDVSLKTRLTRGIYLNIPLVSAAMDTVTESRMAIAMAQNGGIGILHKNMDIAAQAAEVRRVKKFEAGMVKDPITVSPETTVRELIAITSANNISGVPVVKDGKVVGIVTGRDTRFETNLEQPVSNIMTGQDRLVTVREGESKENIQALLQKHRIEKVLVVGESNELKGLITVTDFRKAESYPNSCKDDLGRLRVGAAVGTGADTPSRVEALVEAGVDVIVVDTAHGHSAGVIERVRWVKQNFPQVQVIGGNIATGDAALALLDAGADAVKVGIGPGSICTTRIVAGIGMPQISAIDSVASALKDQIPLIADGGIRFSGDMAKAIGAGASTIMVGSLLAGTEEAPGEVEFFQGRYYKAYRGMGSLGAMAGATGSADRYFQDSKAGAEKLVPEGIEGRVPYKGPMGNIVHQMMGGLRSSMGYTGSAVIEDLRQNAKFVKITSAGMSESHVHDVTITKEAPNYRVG

Compound C[C@@H](Oc1ccc2ncc3c(c2c1)CCOC3)c1cncc(-c2nc(Cl)c[nH]2)c1 [G8, (R)-9-[1-[5-(4-chloro-1H-imidazol-2-yl)-3-pyridyl]ethoxy]-2,4-dihydro-1H-pyrano[3,4 c]quinoline] has an IC50 [1] of 8 nM, an MIC [2] of 5 µM and an MIC [3] of 0.02 µM. The MIC [4] was 0.01 µM (≈ 0.00407 µg/mL), the MIC ([5]; ATCC19606, read-out: A.b.19606 Average CLSI MIC (n=3), guaB allele P25A) was 0.8 µM (≈ 0.325 µg/mL) and the MIC ([5]; ATCC19606, read-out: A.b.19606 Average CLSI MIC (n=3), guaB allele P25S) was 0.6 µM (≈ 0.244 µg/mL). It also gave an MIC ([5]; ATCC19606, read-out: A.b.19606 Average CLSI MIC (n=3), guaB allele Y445C) of 0.2 µM (≈ 0.0814 µg/mL), an MIC ([5]; ATCC19606, read-out: A.b.19606 Average CLSI MIC (n=3), guaB allele Y445N) of 1.8 µM (≈ 0.732 µg/mL) and an MIC ([5]; ATCC19606, read-out: A.b.19606 Average CLSI MIC (n=3), guaB allele Y445S) of 8.3 µM (≈ 3.38 µg/mL). The “GuaBi CLSI MIC fold change from parent strain” value (“GuaBi CLSI MIC fold change” below) ([5]; guaB allele P25A) was 3.3, the “GuaBi CLSI MIC fold change” value ([5]; guaB allele P25S) was 2.5 and the “GuaBi CLSI MIC fold change” value ([5]; guaB allele Y445C) was 1. For the same compound, the “GuaBi CLSI MIC fold change” value ([5]; guaB allele Y445N) was 7, the “GuaBi CLSI MIC fold change” value ([5]; guaB allele Y445S) was 32 and the MIC [6] was greater than 100 µM. The MIC [7] was 0.2 µM (≈ 0.0814 µg/mL), the MIC [8] was 0.04 µM and the MIC [9] was 0.03 µM. It also gave an IC50 [10] of 0.21 nM, an MIC [11] of 0.01 µM (≈ 0.00407 µg/mL) and an MIC ([12]; 24 h, M9 media + 100µM guanine, 24 hours, read-out: A.b.19606 Average CLSI MIC (n=3)) greater than 100 µM. The MIC ([12]; 24 h, M9 media, 24 hours, read-out: A.b.19606 Average CLSI MIC (n=3)) was 0.4 µM (≈ 0.163 µg/mL), the MIC ([12]; A. baumannii 19606 wild-type (Fig 3D), read-out: Avg. MIC) was 0.39 µM (≈ 0.159 µg/mL) and the MIC ([12]; guaB allele wild-type, M9 media (cross-resistance table), read-out: A.b.19606 Average CLSI MIC (n=3)) was 0.3 µM (≈ 0.122 µg/mL). For the same compound, the “GuaBi CLSI MIC fold change” value ([12]; guaB allele wild-type) was 1, the MIC [13] was greater than 100 µM and the MIC [14] was 50 µM. The MIC [15] was greater than 100 µM, the MIC [16] was 0.004 µM (≈ 0.00163 µg/mL) and the MIC [17] was 0.01 µM (≈ 0.00407 µg/mL). For the same compound, the IC50 [18] was 0.14 nM, the MIC [19] was greater than 100 µM and the “in vitro safety profile: promiscuity” value [20] was “high promiscuity risk”. For the same compound, the “in vitro safety profile: selectivity” value [20] was “off-target selectivity”, the “Promiscuity Risk” value ([20]; 50µM) was 51% and the “Selectivity Risk” value ([20]; 50µM) was 17%. For the same compound, the “Hits (>50% Binding)” value ([20]; 50µM, 41 targets) was 21, the “Hits (>75% Binding)” value ([20]; 50µM, 41 targets) was 7 and the IC50 [21] was greater than 50000 nM. The MIC [22] was greater than 100 µM, the MIC [23] was greater than 100 µM and the MIC [24] was greater than 100 µM. For the same compound, the MIC [25] was 1.3 µM, the MIC [26] was 0.007 µM (≈ 0.00285 µg/mL) and the MIC [27] was 0.03 µM (≈ 0.0122 µg/mL). The IC50 at 2 day ([28]; General cytotoxicity IC50, Serum) was 19200 nM, the IC50 at 2 day ([28]; General cytotoxicity IC50, Serum-Free) was 30200 nM and the “in vitro safety profile: cytotoxicity” value [29] was “cytotoxicity liabilities”. It also gave an MIC [30] of 0.05 µM (≈ 0.0203 µg/mL).
